Structures can show the parent of a compound that is named as a salt. Where a SMILES comes first, the peptide text is derived from it. The star is where a group is joined. Cbz = O=C(OCc1ccccc1)*; CH2F = FC*
Key:
Assay type in all cases: cell-based
U87 cells [1] = test: Macropinocytosis inhibition with EIPA; conditions: C9 KD U87 cells, 20 μM EIPA vs DMSO
Method: Cell were treated with control and C9 siRNA. After 6 hours, media were replaced and control and siC9 cells were either treated with DMSO or with 20 μM 5-(N-Ethyl-N-isopropyl) amiloride (Sigma™, A3085). After 3 days, cells were then imaged using Nikon Eclipse™ Ts2-FL Inverted Fluorescence Microscope and vacuoles from images were quantitated using ImageJ™.
In another study to further confirm the macropinocytotic origin of the vacuoles, 5-(N-ethyl-N-isopropyl) amiloride (EIPA), a macropinocytosis inhibitor was used.
FIG. 9 presents phase contrast images (40×) of U87 cells treated with control or C9 siRNA (SEQ ID NO;631) and incubated in DMSO (siCtrl+DMSO and siC9+DMSO, respectively) or in 20 μM Amiloride (siCtrl+EIPA 20 μM and siC9+EIPA 20 μM, respectively). The scale bar represents 10 μm. WB on the right represents C9 KD efficiency in EIPA treated U87 cells. […] Statistical significance was assessed by an unpaired t-test: NS P>0.05, *P≤0.05, **P≤0.01, ***P≤0.001 ****P≤0.0001.

U87 cells [2] = test: RAC1 inhibition with NSC23766, vacuoles per cell; conditions: C9 KD U87 cells, 100 μM NSC23766 vs DMSO, 3 days
Method: Macropinocytosis is known to depends on RAC1 activation which induces membrane ruffling (through actin rearrangement) that mature into macropinosomes. If the accumulated vacuoles are of macropinocytotic origin, then inhibition of RAC1 should rescue their accumulation. To test this, cells were treated with control or C9 siRNA in combination with NSC23766 (NSC), a RAC1 inhibitor.
FIG. 11A, FIG. 11B, FIG. 11C and FIG. 11D are a set of phase contrast images (20×) of U87 cells treated with control or C9 siRNA (SEQ ID NO:631) and incubated in DMSO (siCtrl+DMSO and siC9+DMSO, respectively) or in 100 μM RAC1 inhibitor NSC23766 (siCtrl+NSC and siC9+NSC, respectively). The scale bar represents 10 μm. […] FIG. 12 is a graph representing quantitation of the data for U87 cells treated with control (n=76) siRNA and DMSO (blue dots), U87 cells treated with C9 siRNA (n=41) with DMSO (red squares), U87 cells treated with control (n=74) siRNA and 100 μm of NSC (green dots), and U87 cells treated with C9 siRNA (n=73) with 100 μm of NSC (purple dots). Statistical significance was assessed by an unpaired t-test: NS P>0.05, *P≤0.05, **P≤0.01, ***P≤0.001 ****P≤0.0001.

U87 cells [3] = test: Viability rescue with caspase inhibitor Z-VAD-FMK
Method: For viability assays (performed in 6-well plates), cells were harvested using trypsin (0.5 ml per well) and the media were saved from each well. The saved media was re-suspended with the trypsinised cells and 2-3 aliquots (50 μL each) of this suspension were taken into a 96-well plates. CellTiter-Glo™ (CTG) Luminescent Viability assay was used to measure the viability of these aliquots. CTG-media mixture (150 μL) were added to each well. The rest of the culture was used to extract protein. The viability of cells was measured using the 1:1 dilution of the CellTiter-Glo™ Luminescent reagent (Promega™, cat #G7573) with media, which was read on Victor™ 5 plate reader after 10 minutes of shaking at room temperature. The intensity of luminescence was normalized to that of the DMSO (Sigma™, D5879) control.
To confirm that cells undergo non-apoptotic death, apoptosis was blocked with a broad caspase inhibitor Z-VAD-FMK upon C9 KD. […] Additionally, the apoptosis inducer, staurosporine (STS), was used to asses Z-VAD-FMK efficacy. […] A beta galactosidase staining technique was used to asses senescence upon C9 KD. […] See FIG. 20, for which U87 cells were treated with control (siCtrl) and C9 (siC9; SEQ ID NO:631) siRNA and then subjected to β-Galactosidase Staining.

p53 [4] = test: p53 western blot in p53 null U87 cells treated with doxorubicin; conditions: p53 null U87 cells (KO #4)
Method: To generate p53 knockout clones, U87 cells (7×10^5) were transfected with 2 μg p53 CRISPR/Cas9 KO plasmid (Santa Cruz Biotech™, sc-416469) using Lipofectamine 2000 (ThermoFisher™). Two days later, cells were treated with Nutlin-3 (10 μM) for 12 days to inhibit proliferation of cells with wild type p53, thereby enriching for p53 knockout cells. Single-cell clones were selected via limiting dilution, and p53 knockout clones were confirmed by western blotting using p53 antibody (FL-393).
To further validate the dependency of vacuolization on p53, two p53 null cell lines were generated using CRISPR. First, the cells lack of p53 was validated by treating them doxorubicin, […]. […] See FIG. 31, which is a WB showing p53 levels in wtp53 U87 (WT p53) cells and in p53 null U87 cells treated with DMSO (KO #4+DMSO) or DOX (KO #4+DOX).

U87 cells [5] = test: TUNEL assay for DNA breaks; conditions: vs control
Method: Cells were treated with control and C9 siRNA for three days. On day three, cells were collected for TUNEL assay using the FlowTACS kit (TREVIGEN™, 4817-60-K) according to manufacturer's instructions to detect DNA fragmentation. For a positive control, DNA damage was induced using doxorubicin. Data were collected on a FACSCalibur™ flow cytometer (Becton Dickinson™) and data analysis performed on FlowJo™.
ROS can cause oxidative DNA damage. Since elevated ROS levels were observed under C9 KD conditions, it may cause increase in DNA damage. To test this hypothesis, a TUNEL assay was used to measure DNA breaks. […] In addition to C9KD, U87 cells were treated with a known chemotherapeutic DNA damage-inducing drug to serve as a positive control for DNA damage (see FIG. 23). FIG. 23 presents data for the TUNEL assay of U87 cells treated as described for FIG. 21 and for positive DNA-damage control with 0.5 μM doxorubicin (DOX). FIG. 23A presents data for the percentage of cells with DNA fragmentation (shown by DNA damage) comparing control (siCtrl) C9 KD (siC9; SEQ ID NO:631) and DOX-treated cells as measured by FACS analysis. […] FIG. 24 is a set of graphs showing data for cells treated as described for FIG. 23, with the exception of using a different C9 siRNA, indicated as siC9 #2 (SEQ ID NO:633).

p53 [6] = test: Western blot of phospho-p53, p53 and p21; conditions: U87 cells
Method: For Western blot analysis, cells were lysed with lysis buffer (20 mM sodium phosphate (pH 7.0), 250 mM NaCl, 30 mM sodium pyrophosphate, 0.1% Nonidet™ P-40, 5 mM EDTA, 10 mM NaF, 0.1 mM Na3VO4, and 1 mM PMSF) supplemented with complete protease inhibitors (Roche™) and homogenized by passage through a 28 gauge needle. Protein concentration was measured with a Bio-Rad™ protein assay dye reagent and results were read using a spectrophotometer (BiophotometerPlus™ by Eppendorf™). Protein extracts were resolved by SDS PAGE on gradient (Thermo Fisher™) or 12% gels. Proteins were then electrotransferred at 350 mA for 80 minutes onto a PVDF membrane (Immobilon-P PVDF). Membranes were blocked with PBST with 5% milk and 1% BSA for 30 minutes. Quantitation of blots was performed Image Studio Lite software (LI-COR Biosciences™).
One of the responses to DNA damage is activation of p53 by ATM. Upon DNA damage, ATM activation leads to p53 phosphorylation, which activates p53 as a transcription factor. Since increased DNA damage was observed upon C9 KD, whether p53 is activated in C9 depleted cells was investigated. First, total p53 levels were measured in U87 cells treated with control and two independent siRNAs against C9. […] Then, the levels of phosphorylated (active) p53 (at s15) was measured. Phosphorylation of s15 on p53 was increased in both C9 siRNA samples.

For `CCN(c1nc(N)c(C(=O)NC(=N)N)nc1Cl)C(C)C` [EIPA, 5-(N-ethyl-N-isopropyl) amiloride], the vacuole formation (U87 cells [1]) was “significant inhibition of vacuole formation”.
In the case of `CCN(CC)CCCC(C)Nc1nc(C)cc(Nc2ccc3nc(C)cc(N)c3c2)n1` (stereo not drawn) [NSC23766], the vacuoles per cell (U87 cells [2]) is reported as “significant drop in vacuoles”.
With `COC(=O)C[C@H](NC(=O)[C@H](C)NC(=O)[C@@H](NC(=O)OCc1ccccc1)C(C)C)C(=O)CF` [Z-VAD-FMK] (Cbz-Val-Ala-Asp(OMe)-CH2F) the “rescue of cell viability” value (U87 cells [3]; C9 KD U87 cells) was “did not significantly rescue” and the “rescue of cell viability” value (U87 cells [3]; staurosporine (STS) treated U87 cells) was “able rescue viability”.
In the case of `COc1cccc2c1C(=O)c1c(O)c3c(c(O)c1C2=O)C[C@@](O)(C(=O)CO)C[C@@H]3O[C@H]1C[C@H](N)[C@H](O)[C@H](C)O1` [doxorubicin, Doxorubicin hydrochloride], the p53 accumulation (p53 [4]) is reported as “did not induce p53 accumulation”.
In the case of “siC9 #2: siRNA targeting C9 mRNA: GCACAUAUGGACUAUCAAUtt (SEQ ID NO:633; sense) and AUUGAUAGUCCAUAUGUGCtg (SEQ ID NO:634; antisense) (sense GCACAUAUGGACUAUCAAUTT; antisense AUUGAUAGUCCAUAUGUGCTG; chemistry not given here)”, the “DNA breaks (TUNEL)” value (U87 cells [5]) is reported as “increase in DNA breaks”, the p21 protein levels (p53 [6]) is reported as “increased p21 protein levels” and the “phosphorylation of s15 on p53” value (p53 [6]) is reported as “increased”. For the same compound, the “total p53 levels” value (p53 [6]) was “elevates p53 levels”.

Reference: patent US20210108199A1, “Treatment for aggressive cancers by targeting C9ORF72” (The Trustees of Columbia University in the City of New York, priority 2017, published 2021)
